Assay results from patent publication US20260262643A1, “HERBICIDAL BENZOXAZINES” (FMC CORPORATION, priority 2022, published 2026).

Assays:
ducksalad = assay: Test B flooded paddy test; format: in vivo, Heteranthera limosa; settings: 250 g ai/ha, Flood, 13 days, 0 to 100 scale (0 no effect, 100 complete control)
Outline: (§1)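 Two-leaf plants, 3 cm flood, in-water application, 13-day greenhouse hold, visual 0–100 rating vs untreated checks.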

ryegrass, Italian [1] = assay: Test A postemergence; format: in vivo, Lolium multiflorum
Outline: (§2)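 Visual injury ratings on a 0–100 scale (100 = complete control) versus untreated controls, taken 10 days after treatment in greenhouse. Preemergence: directed soil spray onto seeded loam/sand. Postemergence: foliar application at one- to two-leaf stage, plants 2–10 cm. Formulation: non-phytotoxic solvent plus surfactant.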

goosegrass [2] = assay: Test A preemergence; format: in vivo, Eleusine indica
Outline: as §2

soybean [3] = assay: Test A preemergence; format: in vivo, Glycine max
Excerpt: (§3) Seeds of plant species selected from barnyardgrass (Echinochloa crusgalli), blackgrass (Alopecurus myosuroides), corn (Zea mays), foxtail, giant (giant foxtail, Setaria faberi), goosegrass (Eleusine indica), kochia (Bassia scoparia), oat, wild (wild oat, Avena fatua), pigweed, palmer (palmer amaranth, palmer pigweed, Amaranthus palmeri), Pigweed, Redroot (redroot pigweed, Amaranthus retroflexus), ragweed (common ragweed, Ambrosia artemisiifolia), ryegrass, Italian (italian ryegrass, Lolium multiflorum), soybean (Glycine max), and wheat (Triticum aestivum) were planted into a blend of loam soil and sand and treated preemergence with a directed soil spray using test chemicals formulated in a non-phytotoxic solvent mixture which included a surfactant. At the same time, plants selected from these crops and weed species and also galium (catchweed bedstraw, Galium aparine) and horseweed (Erigeron canadensis) were planted in pots containing the same blend of loam soil and sand and treated with postemergence applications of test chemicals formulated in the same manner. Plants ranged in height from 2 to 10 cm and were in the one- to two-leaf stage for the postemergence treatment. Treated plants and untreated controls were maintained in a greenhouse for 10 days, after which time all treated plants were compared to untreated controls and visually evaluated for injury. Plant response ratings, summarized in Table A, are based on a 0 to 100 scale where 0 is no effect and 100 is complete control. A dash (-) response means no test result.

foxtail, giant [4] = assay: Test A postemergence; format: in vivo, Setaria faberi
Outline: as §2

wheat [5] = assay: Test A postemergence; format: in vivo, Triticum aestivum
Excerpt: as §3

sedge, umbrella = assay: Test B flooded paddy test; format: in vivo, Cyperus difformis; settings: 250 g ai/ha, Flood, 13 days, 0 to 100 scale (0 no effect, 100 complete control)
Outline: as §1

goosegrass [6] = assay: Test A postemergence; format: in vivo, Eleusine indica
Outline: as §2

oat, wild [7] = assay: Test A postemergence; format: in vivo, Avena fatua
Excerpt: as §3

kochia [8] = assay: Test A postemergence; format: in vivo, Bassia scoparia
Outline: as §2

ragweed [9] = assay: Test A preemergence; format: in vivo, Ambrosia artemisiifolia
Outline: as §2

corn [10] = assay: Test A postemergence; format: in vivo, Zea mays
Excerpt: as §3

soybean [11] = assay: Test A postemergence; format: in vivo, Glycine max
Excerpt: as §3

barnyardgrass = assay: Test B flooded paddy test; format: in vivo, Echinochloa crus-galli; settings: 250 g ai/ha, Flood, 13 days, 0 to 100 scale (0 no effect, 100 complete control)
Outline: as §1

rice = assay: Test B flooded paddy test; format: in vivo, Oryza sativa; settings: 250 g ai/ha, Flood, 13 days, 0 to 100 scale (0 no effect, 100 complete control)
Outline: as §1

pigweed, palmer [12] = assay: Test A postemergence; format: in vivo, Amaranthus palmeri
Outline: as §2

wheat [13] = assay: Test A preemergence; format: in vivo, Triticum aestivum
Excerpt: as §3

pigweed, palmer [14] = assay: Test A preemergence; format: in vivo, Amaranthus palmeri
Outline: as §2

ryegrass, Italian [15] = assay: Test A preemergence; format: in vivo, Lolium multiflorum
Outline: as §2

corn [16] = assay: Test A preemergence; format: in vivo, Zea mays
Excerpt: as §3

blackgrass [17] = assay: Test A preemergence; format: in vivo, Alopecurus myosuroides
Outline: as §2

ragweed [18] = assay: Test A postemergence; format: in vivo, Ambrosia artemisiifolia
Outline: as §2

kochia [19] = assay: Test A preemergence; format: in vivo, Bassia scoparia
Outline: as §2

blackgrass [20] = assay: Test A postemergence; format: in vivo, Alopecurus myosuroides
Outline: as §2

galium = assay: Test A postemergence; format: in vivo, Galium aparine
Outline: as §2

foxtail, giant [21] = assay: Test A preemergence; format: in vivo, Setaria faberi
Outline: as §2

oat, wild [22] = assay: Test A preemergence; format: in vivo, Avena fatua
Excerpt: as §3

[23] = 125 g ai/ha, postemergence, 10 days, visual injury, 0 to 100 scale (0 no effect, 100 complete control)
[24] = 500 g ai/ha, Postemergence, 0 to 100 scale
[25] = 125 g ai/ha, visual injury after 10 days, 0 to 100 scale, 0 is no effect, 100 is complete control
[26] = 500 g ai/ha, 0 to 100 scale (0 no effect, 100 complete control), 10 days

## CC1CN(C(=O)c2cccc(-n3cncn3)c2)c2cccc(C3CC3)c2O1 (centres unmarked) [Compound 42]
ducksalad
  Plant response rating, Ducksalad: 0
ryegrass, Italian [1]; [23]
  Plant response rating, Ryegrass, Italian: 0
ryegrass, Italian [1]; [24]
  Plant response rating, Ryegrass, Italian: 50
Goosegrass [2]; [25]
  Plant response rating, Goosegrass: 30
Goosegrass [2]; [26]
  Plant response rating, Goosegrass: 90
Soybean [3]; [25]
  Plant response rating, Soybean: 0
Soybean [3]; [26]
  Plant response rating, Soybean: 0
foxtail, giant [4]; [23]
  Plant response rating, Foxtail, Giant: 20
foxtail, giant [4]; [24]
  Plant response rating, Foxtail, Giant: 70
Wheat [5]; [23]
  Plant response rating, Wheat: 0
Wheat [5]; [24]
  Plant response rating, Wheat: 20
sedge, umbrella
  Plant response rating, Sedge, Umbrella: 0
Goosegrass [6]; [23]
  Plant response rating, Goosegrass: 20
Goosegrass [6]; [24]
  Plant response rating, Goosegrass: 30
oat, wild [7]; [23]
  Plant response rating, Oat, Wild: 0
oat, wild [7]; [24]
  Plant response rating, Oat, Wild: 10
Kochia [8]; [23]
  Plant response rating, Kochia: 0
Kochia [8]; [24]
  Plant response rating, Kochia: 80
Ragweed [9]; [25]
  Plant response rating, Ragweed: 0
Ragweed [9]; [26]
  Plant response rating, Ragweed: 0
Corn [10]; [23]
  Plant response rating, Corn: 10
Corn [10]; [24]
  Plant response rating, Corn: 40
Soybean [11]; [23]
  Plant response rating, Soybean: 70
Soybean [11]; [24]
  Plant response rating, Soybean: 90
barnyardgrass
  Plant response rating, Barnyardgrass: 0
rice
  Plant response rating, Rice: 0
pigweed, palmer [12]; [23]
  Plant response rating, Pigweed, Palmer: 30
pigweed, palmer [12]; [24]
  Plant response rating, Pigweed, Palmer: 10
Wheat [13]; [25]
  Plant response rating, Wheat: 0
Wheat [13]; [26]
  Plant response rating, Wheat: 20
pigweed, palmer [14]; [25]
  Plant response rating, Pigweed, Palmer: 10
pigweed, palmer [14]; [26]
  Plant response rating, Pigweed, Palmer: 80
ryegrass, Italian [15]; [25]
  Plant response rating, Ryegrass, Italian: 50
ryegrass, Italian [15]; [26]
  Plant response rating, Ryegrass, Italian: 100
Corn [16]; [25]
  Plant response rating, Corn: 0
Corn [16]; [26]
  Plant response rating, Corn: 0
Blackgrass [17]; [25]
  Plant response rating, Blackgrass: 30
Blackgrass [17]; [26]
  Plant response rating, Blackgrass: 60
Ragweed [18]; [23]
  Plant response rating, Ragweed: 0
Ragweed [18]; [24]
  Plant response rating, Ragweed: 0
Kochia [19]; [25]
  Plant response rating, Kochia: 0
Kochia [19]; [26]
  Plant response rating, Kochia: 20
Blackgrass [20]; [23]
  Plant response rating, Blackgrass: 0
Blackgrass [20]; [24]
  Plant response rating, Blackgrass: 40
galium; [23]
  Plant response rating, Galium: 50
galium; [24]
  Plant response rating, Galium: 70
foxtail, giant [21]; [25]
  Plant response rating, Foxtail, Giant: 10
foxtail, giant [21]; [26]
  Plant response rating, Foxtail, Giant: 90
oat, wild [22]; [25]
  Plant response rating, Oat, Wild: 0
oat, wild [22]; [26]
  Plant response rating, Oat, Wild: 50
